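Assay format: 96-well plates, 48-hour exposure. GI50 is the concentration that inhibits growth by half. TGI: concentration producing complete growth inhibition.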
Columns and labels:
Experiment in all cases: NCI-60 cell line screen, 48 h
BT-549 breast = system: BT-549 breast
DU-145 prostate = system: DU-145 prostate
EKVX NSCLC = system: EKVX NSCLC
HCT-15 colon = system: HCT-15 colon
MCF7 breast = system: MCF7 breast
NCI-H226 lung = system: NCI-H226 lung
NCI-H460 lung = system: NCI-H460 lung
SF-268 CNS = system: SF-268 CNS
LXFL 529 NSCLC = system: LXFL 529 NSCLC
SNB-78 CNS = system: SNB-78 CNS

SMILES | TGI (BT-549 breast) [µM] | TGI (DU-145 prostate) [µM] | TGI (EKVX NSCLC) [µM] | TGI (HCT-15 colon) [µM] | TGI (MCF7 breast) [µM] | TGI (NCI-H226 lung) [µM] | TGI (NCI-H460 lung) [µM] | TGI (SF-268 CNS) [µM] | TGI (LXFL 529 NSCLC) [µM] | TGI (SNB-78 CNS) [µM] | GI50 (BT-549 breast) [µM] | GI50 (DU-145 prostate) [µM] | GI50 (EKVX NSCLC) [µM] | GI50 (HCT-15 colon) [µM] | GI50 (MCF7 breast) [µM] | GI50 (NCI-H226 lung) [µM] | GI50 (NCI-H460 lung) [µM] | GI50 (SF-268 CNS) [µM]
O=C(O)C(Oc1nc(=S)[nH]c(=S)[nH]1)(c1ccc(Cl)cc1)c1ccc(Cl)cc1 | > 100 | > 100 | > 100 | > 100 | > 100 | > 100 | > 100 | > 100 |  |  |  |  |  |  |  |  |  | 
CC1(C)CC(N(C(=O)/C=C/c2ccc([N+](=O)[O-])o2)C2CCCCC2)CC(C)(C)N1 |  |  | 27 | 20.2 |  |  | 13.9 | 20.5 | 17.8 | 26.5 |  |  |  |  |  |  |  | 
CCN(CC)CCNC(=O)c1cccc2nc3ccccc3nc12 |  |  | > 65.4 | 41.8 |  | 34.2 |  | 36.9 | > 87.9 | 71.2 |  |  |  |  |  |  |  | 
CCCCCCCCCCCCCCCC1=NC(C)(C)CN1C(C)C | 23.7 | 2.9 | 4.24 | 2.79 | 3.01 | 6.6 | 3.11 | 2.79 |  |  | 5.12 | 1.56 | 1.74 | 1.47 | 1.55 | 2.13 | 1.73 | 1.47
CN1C/C(=C\C=C\c2ccccc2)C(=O)/C(=C/C=C/c2ccccc2)C1 |  |  | > 100 | > 100 |  | > 100 | > 100 | > 100 | > 100 | > 100 |  |  |  |  |  |  |  | 
CC(=C/c1ccccc1)/C=C1/NC(=S)N(/C=C2\C(=O)Oc3ccccc3C2=O)C1=O | > 100 | > 100 | > 100 | > 100 | > 100 | > 100 | > 100 | > 100 |  |  | 36.8 |  |  |  |  |  |  | 
O=C1/C(=C/c2ccc(Br)cc2)CCC/C1=C\c1ccc(Br)cc1 |  |  | 62.5 | 31.1 |  |  | 28.8 | > 100 | 14.7 | 58.3 |  |  |  |  |  |  |  | 
C=CC1=C(C)C2=NC1=CC1=NC(=C(CC)/C1=C\O)C=C1N=C3C(=C1C)C(=O)[C@H](C(=O)OC)C3=C1NC(=C2)[C@@H](C)[C@@H]1CCC(=O)O | > 100 | > 100 | > 100 | > 100 | > 100 | > 100 | > 100 | > 100 |  |  |  |  |  |  |  |  |  | 
N#CC1C=Cc2c(ccc3ccccc23)N1C(=O)c1ccccc1 (centres undefined) | > 60.1 | 1.97 |  | > 100 | > 100 | > 100 | 7.56 | > 100 |  |  | 2.29 | 0.26 | 0.31 | 0.184 | 0.0413 | 1.34 | 0.191 | 1.05
CC(C)=CCCC(C)C1=C(O)C(=O)C(C)=CC1=O (centres undefined) | 30.2 | 33.3 | > 49.8 | 5.75 | 31.1 | 47.5 | > 100 | 56.6 |  |  |  |  |  |  |  |  |  | 
O=[N+]([O-])c1ccc(C=NC23CC4CC(CC(C4)C2)C3)cc1 |  |  | > 100 | > 100 |  | > 100 | > 100 | > 100 | > 100 | > 100 |  |  |  |  |  |  |  | 
CCN(CC)c1ccc(/C=C/C=C2\NC(=O)NC2=O)cc1 | 40.8 | 25.4 | > 100 | > 100 | > 100 | > 100 | 16.1 | > 100 |  |  | 1.53 | 3.36 | 3.77 | 2.31 | 3.77 | 15 | 3.03 | 8.51
Nc1ncc(-c2cccc(S(N)(=O)=O)c2)c2scc(-c3ccc(F)c(Cl)c3)c12 | 15.1 | 15.3 | > 24.2 | > 25 | 15.9 | 15.1 | 8.08 | > 25 |  |  | 7.69 | 5.55 | 7.75 | 6.59 | 5.93 | 5.71 | 3.8 | 5.93
CN(C)C(=O)Oc1c(-c2ccccc2)c(=O)n2c3ccccc3n3c(=O)n(C)c(=O)c1c23 |  |  | > 100 | > 100 |  |  | > 100 | > 100 | > 100 | > 100 |  |  |  |  |  |  |  | 
COc1c(B(O)O)cc(F)cc1-c1nc2ccc3[nH]ncc3c2c2c1CCCC2 | 1.76 | 12.9 | 10.2 | 9.44 | 6.57 | 7.85 | 10.5 | 10.5 |  |  | 0.044 | 1.7 | 2.37 | 2.12 | 1.53 | 2 | 0.822 | 1.42
Cc1cc(Nc2cc(N)ncn2)c(=O)n2c1C(=O)NC21CCCCC1 | > 100 | > 100 | > 100 | > 100 | > 100 | > 100 | > 100 | > 100 |  |  | 48.4 | > 100 | > 100 | > 100 | > 100 | > 100 | > 100 | 76.9
O=C1c2ccccc2C(=O)c2[nH]c(Cc3ccc(F)cc3)nc21 |  |  | 39.8 | 21.6 |  | 45.9 | 31.1 | 66.3 | 88.2 |  |  |  |  |  |  |  |  | 
C=C1C(=O)O[C@H]2[C@H]1CC/C(COC(=O)NCc1ccc(Cn3c(=O)sn(-c4ccccc4)c3=O)cc1)=C\CC[C@@]1(C)O[C@@H]21 | 5 | 3.12 | 4.38 | 3.88 | 3.55 | 35.2 | 12.4 | 5 |  |  | 2.14 | 1.71 | 1.85 | 1.94 | 1.59 | 14.8 | 3.67 | 2.21
Cc1cccc(Cc2cnc(NC(=O)CCc3ccc(C)o3)s2)c1 | > 100 | > 95.8 | > 100 | > 100 | > 100 | > 100 | > 100 | > 100 |  |  | 0.814 | 0.38 | 0.585 | 0.0729 | 0.0495 | 8.69 | 0.263 | 0.903

Source: PubChem BioAssay (NCI)
